One series deals with PPARd (Homo sapiens, UniProt Q03181). Description: Receptor reporter assay selectivity panel: PPARd.
In a further series the target is RXRa (Homo sapiens, UniProt P19793). Description: Receptor reporter assay selectivity panel: RXRa. (In a reporter assay the amount or activity of a reporter protein is the signal.)
For the next series, the target named is TRb (Homo sapiens, UniProt P10828). Description: Receptor reporter assay selectivity panel: TRb.
In the next series the target is LXRb (Homo sapiens, UniProt P55055). Kind of series: Receptor reporter assay selectivity panel: LXRb.
The next series deals with RARa (Homo sapiens, UniProt P10276). Kind of series: Receptor reporter assay selectivity panel: RARa.
The test system of series [1] is Human mesenchymal stem cells (MSCs). Description: Adipogenesis of human mesenchymal stem cells (PPARγ dependent). To be noted: read-out: IC50, inhibition of adipogenesis.
A further series concerns the target PPARg (Homo sapiens, UniProt P37231). Kind of series: Receptor reporter assay selectivity panel: PPARg.
For another series, the target named is VDR (Homo sapiens, UniProt P11473). Kind of series: Receptor reporter assay selectivity panel: VDR.
For a further series, the target named is RARb (Homo sapiens, UniProt P10826). Description: Receptor reporter assay selectivity panel: RARb.
Another series addresses PPARa (Homo sapiens, UniProt Q07869). Description: Receptor reporter assay selectivity panel: PPARa.
A further series has as its target RXRb (Homo sapiens, UniProt P28702). Description: Receptor reporter assay selectivity panel: RXRb.
The target of the next series is AR (Homo sapiens, UniProt P10275). Kind of series: Receptor reporter assay selectivity panel (Indigo Bioscience): AR.
Another series deals with T1, PXR (Homo sapiens, UniProt O75469).
T1 sequence (O75469 146-434 limits assumed): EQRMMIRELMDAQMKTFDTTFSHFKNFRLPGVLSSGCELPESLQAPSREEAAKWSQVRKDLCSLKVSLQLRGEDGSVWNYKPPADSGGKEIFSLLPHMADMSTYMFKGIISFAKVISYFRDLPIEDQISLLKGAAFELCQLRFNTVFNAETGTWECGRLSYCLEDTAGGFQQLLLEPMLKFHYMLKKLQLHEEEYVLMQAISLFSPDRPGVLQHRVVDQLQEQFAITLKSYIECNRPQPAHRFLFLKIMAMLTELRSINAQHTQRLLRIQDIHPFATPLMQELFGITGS
Description: Receptor reporter assay selectivity panel: PXR.

Another series concerns the target AhR (Homo sapiens, UniProt P35869). Kind of series: Receptor reporter assay selectivity panel: AhR.
In the next series the target is FXR (Homo sapiens, UniProt Q96RI1). Description: Receptor reporter assay selectivity panel: FXR.
The test system of series [2] is adiponectin gene expression. Description: Adiponectin gene expression in MSCs. As to conditions: read-out: IC50, inhibition of adiponectin gene expression.
The target of the next series is MR (Homo sapiens, UniProt P08235). Description: Receptor reporter assay selectivity panel: MR.
For another series, the target named is CAR2 (Homo sapiens, UniProt Q14994). Kind of series: Receptor reporter assay selectivity panel: CAR2.
For another series, the target named is LXRa (Homo sapiens, UniProt Q13133). Description: Receptor reporter assay selectivity panel: LXRa.
The subject of series [3] is IL-17 production in human PBMCs. Kind of series: PBMC Th17 polarization and IL-17 production assay. The format is cell-based. As to conditions: 96 h, 4 days, mean±s.d., read-out: hPBMC IL17A IC50. How it is done: Test compounds were prepared as 10 mM stocks in DMSO and serially diluted 1:3 to provide an eight-concentration titration. […] Stimulatory cytokines were added to final concentrations of 25 ng ml^−1 IL-1B, 10 ng ml^−1 IL-23, 0.5 ng ml^−1 IL-2 and 10 ng ml^−1 IL-6 (all cytokines from R&D Systems). In addition, T-Activator CD3/28 Dynabeads (Invitrogen) were added to a concentration of 100,000 beads per ml. The stimulated cells were immediately dispensed into the assay plate containing serially diluted compound at a volume of 200 μl cells per well. Cell plates were then incubated at 37 °C and 5% CO2 for 4 days. Culture media (100 μl) was collected from each well and IL-17 expression was measured by enzyme-linked immunosorbent assay (R&D Systems) according to the manufacturer's instructions. Cell viability was assessed by the addition of 100 μl of CellTiter-Glo (Promega) to each well of the cell assay plate followed by luminescence detection on an Envision plate reader (PerkinElmer).

A further series addresses RXRg (Homo sapiens, UniProt P48443). Description: Receptor reporter assay selectivity panel: RXRg.
The target in a further series is TRa (Homo sapiens, UniProt P10827). Kind of series: Receptor reporter assay selectivity panel: TRa.
A further series deals with ERb (Homo sapiens, UniProt Q92731). Description: Receptor reporter assay selectivity panel: ERb.
The target in a further series is PR (Homo sapiens, UniProt P06401). Kind of series: Receptor reporter assay selectivity panel: PR.
The target of another series is ERa (Homo sapiens, UniProt P03372). Kind of series: Receptor reporter assay selectivity panel: ERa.
In the next series the target is GR (Homo sapiens, UniProt P04150). Kind of series: Receptor reporter assay selectivity panel: GR.
The target of a further series is CAR3 (Homo sapiens, UniProt Q14994). Kind of series: Receptor reporter assay selectivity panel: CAR3.
Series [4] relates to CD36 and FABP4 gene expression in MSCs. Set-up: dose or concentration left out as unconfirmed. To be noted: MRL-299, data not shown.
A further series has as its target T2, RARg (Homo sapiens, UniProt P13631).
T2 sequence (P13631 185-419 limits assumed): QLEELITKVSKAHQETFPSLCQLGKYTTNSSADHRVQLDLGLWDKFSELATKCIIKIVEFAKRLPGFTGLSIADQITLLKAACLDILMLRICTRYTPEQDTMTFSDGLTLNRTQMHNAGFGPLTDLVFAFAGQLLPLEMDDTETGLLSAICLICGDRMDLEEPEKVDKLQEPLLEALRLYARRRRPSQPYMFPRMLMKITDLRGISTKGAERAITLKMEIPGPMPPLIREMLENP
Description: Receptor reporter assay selectivity panel: RARg.

In another series the target is CAR1 (Homo sapiens, UniProt Q14994). Kind of series: Receptor reporter assay selectivity panel: CAR1.
Series [5] deals with IL17a mRNA expression in EL4 cells. Kind of series: Quantitative IL17a RT-PCR in EL4 cells. As to conditions: 10 μM, 24 h, vs DMSO, normalized to GAPDH. The format is cell-based, mouse. How it is done:
EL4 cells (Sigma-Aldrich) were grown in DMEM (Gibco). At 24 h after the cells were seeded onto a 12-well plate, the cells were treated with ligands 1–3 (from 10 mM stock in DMSO) or DMSO. After 24 h, the cells were collected and RNA was isolated using a RNeasy Plus Micro Kit (Qiagen) and reverse transcribed using the iScrip cDNA biosynthesis kit (Bio-Rad). Quantitative RT–PCR was performed to analyse mRNA levels of mouse IL17a levels using SYBR green technology (Bio-Rad) on a CFX Real-Time System (Bio-Rad). Primer sequences used for IL17a:[45] Fw: 5′-[…]-3′, Rev: 5′-[…]-3′ and Gapdh: Fw: 5′-[…]-3′, Rev: 5′-[…]-3′. The level of IL17a mRNA expression was normalized to that of Gapdh expression. All data are expressed as the mean±s.e.m. (n=6). Statistical analysis was performed using an one-way analysis of variance comparing against the DMSO control following Dunnett post hoc test.

A further series addresses T3, human RORγt LBD (Homo sapiens, UniProt P51449).
T3 construct: The human RORγt LBD used for the HTRF assay; made in house; host or cells: Escherichia coli BL21(DE3)
Description: HTRF / TR-FRET cofactor peptide recruitment assay. The class given is biochemical. To be noted: Fig. 2a. How it is done:
The human RORγt LBD used for the HTRF assay was expressed as a His6-tag fusion protein from the pET15b expression vector in Escherichia coli BL21(DE3) cells. Cells transformed with this vector were grown in 2 × YT medium supplemented with ampicillin until an OD600=0.7 was reached. Protein expression was then induced with 0.1 mM isopropyl-b-d-thiogalactoside (IPTG). After incubation for 16 h at 16 °C, cell cultures were collected by centrifugation. The cells were lysed via sonication and the protein was purified via Ni^2+-affinity column chromatography.
The homogeneous TR-FRET assays were performed in triplicate with 20 nM His6-RORγt and 100 nM biotin labelled cofactor peptide. […] Assay buffer contained 100 mM HEPES (pH 7.5), 100 mM NaCl, 5 mM dithiothreitol (DTT) and 0.1% bovine serum albumin. The plates (white 384-well plates Greiner Bio-One) were incubated for 2 h at 4 °C before the FRET ratio was measured in a Tecan Infinite F500 plate reader. The data were analysed using Origin software.

Read-outs that look alike come from different tables or passages of the source. Some results are limits rather than exact numbers.

Chain of LXRb (P55055 222-460 limits assumed): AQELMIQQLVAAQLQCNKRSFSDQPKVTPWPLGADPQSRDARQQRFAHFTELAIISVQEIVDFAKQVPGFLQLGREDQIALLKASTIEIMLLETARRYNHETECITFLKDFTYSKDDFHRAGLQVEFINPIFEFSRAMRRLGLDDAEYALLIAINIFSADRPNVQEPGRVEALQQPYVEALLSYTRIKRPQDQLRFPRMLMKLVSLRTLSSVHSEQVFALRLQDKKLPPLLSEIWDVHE
Chain of ERb (Q92731 whole entry): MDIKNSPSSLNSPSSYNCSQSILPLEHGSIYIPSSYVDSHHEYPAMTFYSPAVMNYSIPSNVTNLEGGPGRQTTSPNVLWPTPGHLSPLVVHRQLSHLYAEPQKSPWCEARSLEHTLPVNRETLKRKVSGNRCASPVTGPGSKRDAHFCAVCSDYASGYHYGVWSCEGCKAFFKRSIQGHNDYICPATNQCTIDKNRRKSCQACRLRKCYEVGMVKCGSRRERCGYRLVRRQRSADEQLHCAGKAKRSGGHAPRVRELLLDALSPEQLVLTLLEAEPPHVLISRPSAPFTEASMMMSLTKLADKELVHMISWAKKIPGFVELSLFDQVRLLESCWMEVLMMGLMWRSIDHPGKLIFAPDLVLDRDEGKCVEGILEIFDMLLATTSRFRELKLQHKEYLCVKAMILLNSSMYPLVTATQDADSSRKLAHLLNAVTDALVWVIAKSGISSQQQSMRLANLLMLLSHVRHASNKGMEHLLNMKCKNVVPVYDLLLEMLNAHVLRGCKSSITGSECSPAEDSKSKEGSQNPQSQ
Chain of PPARa (Q07869 200-468 limits assumed): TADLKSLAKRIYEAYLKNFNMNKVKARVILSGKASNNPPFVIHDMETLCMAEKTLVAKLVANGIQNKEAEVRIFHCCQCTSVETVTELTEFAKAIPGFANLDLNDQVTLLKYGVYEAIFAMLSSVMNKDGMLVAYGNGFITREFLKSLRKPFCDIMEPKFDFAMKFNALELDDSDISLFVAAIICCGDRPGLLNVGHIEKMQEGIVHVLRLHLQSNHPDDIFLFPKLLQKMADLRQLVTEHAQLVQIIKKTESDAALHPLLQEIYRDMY
Chain of LXRa (Q13133 209-447 limits assumed): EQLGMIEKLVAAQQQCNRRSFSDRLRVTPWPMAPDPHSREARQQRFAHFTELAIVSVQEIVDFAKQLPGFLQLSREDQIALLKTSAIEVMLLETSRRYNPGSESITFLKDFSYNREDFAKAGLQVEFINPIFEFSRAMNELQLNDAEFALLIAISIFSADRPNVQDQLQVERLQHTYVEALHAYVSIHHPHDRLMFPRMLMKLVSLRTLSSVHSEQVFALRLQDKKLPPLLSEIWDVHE
Chain of VDR (P11473 127-427 limits assumed): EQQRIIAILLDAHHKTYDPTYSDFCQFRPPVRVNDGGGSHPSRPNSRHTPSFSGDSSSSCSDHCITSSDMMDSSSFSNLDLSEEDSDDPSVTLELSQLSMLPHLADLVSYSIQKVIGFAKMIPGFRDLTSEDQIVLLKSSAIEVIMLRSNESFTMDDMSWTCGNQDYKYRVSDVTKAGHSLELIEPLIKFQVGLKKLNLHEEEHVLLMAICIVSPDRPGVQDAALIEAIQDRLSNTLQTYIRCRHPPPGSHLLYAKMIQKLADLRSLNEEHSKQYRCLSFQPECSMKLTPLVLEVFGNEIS
Chain of AR (P10275 whole entry): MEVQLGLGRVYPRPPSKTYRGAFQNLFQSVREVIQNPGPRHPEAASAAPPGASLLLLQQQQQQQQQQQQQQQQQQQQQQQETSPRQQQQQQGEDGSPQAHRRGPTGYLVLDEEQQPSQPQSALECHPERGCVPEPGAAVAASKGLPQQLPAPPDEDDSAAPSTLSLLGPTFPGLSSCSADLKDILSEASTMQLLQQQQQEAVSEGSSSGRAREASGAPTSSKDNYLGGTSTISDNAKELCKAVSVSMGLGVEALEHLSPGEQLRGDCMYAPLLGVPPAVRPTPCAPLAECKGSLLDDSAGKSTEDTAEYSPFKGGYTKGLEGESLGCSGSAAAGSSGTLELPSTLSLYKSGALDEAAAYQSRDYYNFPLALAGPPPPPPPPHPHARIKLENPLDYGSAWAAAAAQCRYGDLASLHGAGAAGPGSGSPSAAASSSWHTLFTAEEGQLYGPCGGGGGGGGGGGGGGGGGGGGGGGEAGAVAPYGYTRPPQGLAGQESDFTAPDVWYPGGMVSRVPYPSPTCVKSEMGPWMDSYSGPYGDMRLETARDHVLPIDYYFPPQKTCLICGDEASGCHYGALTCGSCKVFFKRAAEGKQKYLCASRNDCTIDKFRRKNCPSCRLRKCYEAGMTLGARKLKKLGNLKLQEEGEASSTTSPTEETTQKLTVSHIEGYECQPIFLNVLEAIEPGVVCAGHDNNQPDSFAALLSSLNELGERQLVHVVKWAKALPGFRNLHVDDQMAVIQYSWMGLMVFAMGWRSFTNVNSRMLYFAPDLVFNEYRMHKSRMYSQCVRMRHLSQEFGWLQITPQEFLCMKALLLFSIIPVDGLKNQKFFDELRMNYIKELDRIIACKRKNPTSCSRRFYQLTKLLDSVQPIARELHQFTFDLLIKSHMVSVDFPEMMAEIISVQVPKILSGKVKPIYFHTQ
Chain of PR (P06401 whole entry): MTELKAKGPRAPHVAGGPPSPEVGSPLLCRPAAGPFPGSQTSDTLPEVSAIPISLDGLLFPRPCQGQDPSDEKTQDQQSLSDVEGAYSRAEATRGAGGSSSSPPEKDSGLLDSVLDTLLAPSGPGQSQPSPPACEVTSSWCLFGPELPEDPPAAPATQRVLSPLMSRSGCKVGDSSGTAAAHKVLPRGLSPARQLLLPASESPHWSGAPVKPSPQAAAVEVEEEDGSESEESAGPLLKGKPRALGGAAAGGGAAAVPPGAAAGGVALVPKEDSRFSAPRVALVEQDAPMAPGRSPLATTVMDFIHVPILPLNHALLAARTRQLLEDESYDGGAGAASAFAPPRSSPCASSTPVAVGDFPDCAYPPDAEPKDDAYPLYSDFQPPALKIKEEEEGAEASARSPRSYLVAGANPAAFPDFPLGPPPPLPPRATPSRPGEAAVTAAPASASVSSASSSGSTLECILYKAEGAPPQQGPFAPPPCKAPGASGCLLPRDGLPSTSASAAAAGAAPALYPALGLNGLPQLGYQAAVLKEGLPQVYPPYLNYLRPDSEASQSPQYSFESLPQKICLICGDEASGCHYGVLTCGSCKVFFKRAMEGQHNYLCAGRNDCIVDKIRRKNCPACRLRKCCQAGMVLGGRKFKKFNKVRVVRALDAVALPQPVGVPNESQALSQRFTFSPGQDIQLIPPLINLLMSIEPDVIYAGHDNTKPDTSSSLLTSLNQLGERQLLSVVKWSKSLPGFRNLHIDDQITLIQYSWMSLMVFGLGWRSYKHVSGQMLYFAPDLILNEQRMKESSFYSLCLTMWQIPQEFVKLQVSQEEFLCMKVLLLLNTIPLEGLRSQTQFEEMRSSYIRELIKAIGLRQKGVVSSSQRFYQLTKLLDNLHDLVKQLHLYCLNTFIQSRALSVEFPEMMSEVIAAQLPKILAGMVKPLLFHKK
Chain of MR (P08235 whole entry): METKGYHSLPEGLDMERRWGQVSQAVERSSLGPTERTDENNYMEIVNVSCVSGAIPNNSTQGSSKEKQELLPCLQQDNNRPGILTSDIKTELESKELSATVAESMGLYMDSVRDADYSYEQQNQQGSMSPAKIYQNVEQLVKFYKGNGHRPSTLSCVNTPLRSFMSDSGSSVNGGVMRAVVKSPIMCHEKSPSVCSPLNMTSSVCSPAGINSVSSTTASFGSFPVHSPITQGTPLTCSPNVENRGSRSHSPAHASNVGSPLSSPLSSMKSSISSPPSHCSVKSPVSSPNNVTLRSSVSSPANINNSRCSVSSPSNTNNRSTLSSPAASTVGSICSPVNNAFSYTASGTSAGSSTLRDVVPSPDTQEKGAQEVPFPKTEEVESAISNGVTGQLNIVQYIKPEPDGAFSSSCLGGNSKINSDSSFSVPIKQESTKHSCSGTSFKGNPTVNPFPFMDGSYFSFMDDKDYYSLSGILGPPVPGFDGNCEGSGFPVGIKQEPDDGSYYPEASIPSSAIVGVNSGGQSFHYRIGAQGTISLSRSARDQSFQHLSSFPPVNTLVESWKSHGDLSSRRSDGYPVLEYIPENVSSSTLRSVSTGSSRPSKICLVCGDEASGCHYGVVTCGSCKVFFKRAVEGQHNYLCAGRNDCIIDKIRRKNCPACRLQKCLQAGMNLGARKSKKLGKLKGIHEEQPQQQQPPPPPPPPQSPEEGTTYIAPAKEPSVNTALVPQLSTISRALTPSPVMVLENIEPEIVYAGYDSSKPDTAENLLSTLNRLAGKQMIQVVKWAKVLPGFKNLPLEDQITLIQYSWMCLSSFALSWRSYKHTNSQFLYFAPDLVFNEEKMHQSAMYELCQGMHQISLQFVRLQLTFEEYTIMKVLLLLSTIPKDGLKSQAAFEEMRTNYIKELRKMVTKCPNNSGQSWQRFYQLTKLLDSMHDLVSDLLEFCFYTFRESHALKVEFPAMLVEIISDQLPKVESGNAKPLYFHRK
Chain of ERa (P03372 whole entry): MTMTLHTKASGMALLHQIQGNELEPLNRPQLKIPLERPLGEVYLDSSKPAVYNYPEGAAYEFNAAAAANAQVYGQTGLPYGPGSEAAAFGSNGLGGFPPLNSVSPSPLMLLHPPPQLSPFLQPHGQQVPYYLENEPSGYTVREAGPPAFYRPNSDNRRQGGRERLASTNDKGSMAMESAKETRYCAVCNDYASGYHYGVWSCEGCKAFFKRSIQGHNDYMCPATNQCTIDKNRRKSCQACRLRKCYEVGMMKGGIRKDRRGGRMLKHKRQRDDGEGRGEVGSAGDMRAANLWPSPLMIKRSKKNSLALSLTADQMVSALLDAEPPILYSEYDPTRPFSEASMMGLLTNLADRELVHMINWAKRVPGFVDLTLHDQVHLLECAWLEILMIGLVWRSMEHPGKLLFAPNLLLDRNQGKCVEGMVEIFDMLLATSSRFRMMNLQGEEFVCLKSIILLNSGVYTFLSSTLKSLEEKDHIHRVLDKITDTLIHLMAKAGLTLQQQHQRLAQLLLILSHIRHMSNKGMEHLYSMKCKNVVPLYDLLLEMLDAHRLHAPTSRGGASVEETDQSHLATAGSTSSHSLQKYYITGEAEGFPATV
Description for AhR: (§1) * Receptor Reporter Assay Selectivity Panel- Assays were performed by Indigo Bioscience (State
(§2) College, PA) according to their established protocols. The AR, ER, GR, MR, and PR assays utilize full
(§3) length receptor constructs whereas all others are chimeric with the GAL4 DNA binding domain.
Description for CAR1: as §1, §2, §3
Description for CAR2: as §1, §2, §3
Description for CAR3: as §1, §2, §3
Description for ERa: as §1, §2, §3
Description for ERb: as §1, §2, §3
Description for FXR: as §1, §2, §3
Description for LXRa: as §1, §2, §3
Description for LXRb: as §1, §2, §3
Description for PPARa: as §1, §2, §3
Description for PPARd: as §1, §2, §3
Description for PPARg: as §1, §2, §3
Description for PXR: as §1, §2, §3
Description for RARa: as §1, §2, §3
Description for RARb: as §1, §2, §3
Description for RARg: as §1, §2, §3
Description for RXRa: as §1, §2, §3
Description for RXRb: as §1, §2, §3
Description for RXRg: as §1, §2, §3
Description for TRa: as §1, §2, §3
Description for TRb: as §1, §2, §3
Description for VDR: as §1, §2, §3

A word on the EC50: it is the concentration giving half of the maximal effect. One may read the IC50 as the concentration that inhibits the measured activity by half. For `O=C(O)c1ccc(-c2nn(C(=O)c3c(Cl)cccc3C(F)(F)F)c3cccc(F)c23)c(F)c1` [MRL-299], the EC50 on PPARd is above 30 µM; on RXRa, above 30 µM; at TRb, above 30 µM; on LXRb, above 30 µM; on RARa, above 30 µM; on PPARg, 0.686 µM. For the same molecule, the EC50 is above 30 µM on VDR; above 30 µM on RARb; above 30 µM on PPARa; above 30 µM at RXRb; above 30 µM at AR; 4.62 µM on PXR. The EC50 at AhR, on FXR, at MR, on CAR2, at LXRa and at RXRg was above 30 µM each time. Further, the EC50 at TRa, at ERb, at PR, at ERa, on GR and on CAR3 was above 30 µM in each case. Also, at RARg, the EC50 came out at 0.364 µM. For the same molecule, the half-maximal inhibitory concentration (IC50) on PPARd is 28 µM; at RXRa it was 7.42 µM; against TRb, 5.73 µM; against LXRb, 21.5 µM; in series [1] (Homo sapiens, Mesenchymal stem cells), around 50 µM; on PPARg it was 0.517 µM. Further, the IC50 was above 30 µM on VDR; 12.3 µM on RARb; 19.1 µM against PPARa; 28 µM against RXRb; 12 µM against AR; above 30 µM at PXR. Besides, the IC50 was 13.6 µM against FXR; around 30 µM in [2] (Homo sapiens); 20 µM against MR; 23.2 µM against LXRa; 0.0094 ± 0.0052 µM in [3]; 4.49 µM against TRa. In addition, the IC50 on ERb is 10.8 µM; against PR it was above 30 µM; against ERa, above 30 µM; on GR, 18.5 µM; at RARg, 3.11 µM; at CAR1, 16.7 µM. Further, at PXR (PXR, relative to rifampicin control), the “agonist maximum, % of rifampicin max” value was 63%. Besides, the “induction of CD36 gene expression” value in series [4] is reported as “no induction”. In series [4], the “induction of FABP4 gene expression” value is “no induction”. Moreover, the “agonist maximum, % of ATRA max” value on RARg (RARg, relative to ATRA control) was 20%.
Regarding `O=C(Nc1ccccc1)c1cc([N+](=O)[O-])ccc1Cl` [GW9662, reference compound], the IC50 in series [1] (human MSCs under adipogenic conditions, data not shown) stood at 5.4 µM; in [2] (human MSCs, data not shown), 1 µM.
With `O=C(O)c1ccc(-c2nn(C(=O)c3c(Cl)cccc3C(F)(F)F)c3ccccc23)cc1` [MRL-871], the “IL17a mRNA levels” value in series [5] was “significantly reduced”. For the same molecule, the IC50 in [3] is 0.0396 ± 0.018 µM.
With `O=C(O)c1ccc(-c2nn(C(=O)c3ccccc3C(F)(F)F)c3ccccc23)cc1` [MRL-058], in [5], the “IL17a mRNA levels” value is “significantly reduced”.
As to `CC(C)CCC[C@@H](C)[C@H]1CC[C@H]2[C@@H]3CC=C4C[C@@H](O)CC[C@]4(C)[C@H]3CC[C@]12C` [Cholesterol, cholesterol, reference compound], the “effect on interaction of RORγt-LBD with cofactor peptide” value on human RORγt LBD is reported as “weak activator”.
Regarding `CN(CCOc1ccc(CC2SC(=O)NC2=O)cc1)c1ccccn1` (stereo not drawn) [Rosiglitazone, rosiglitazone, reference compound], in [4], the “induction of CD36 gene expression” value was 3 fold and the “induction of FABP4 gene expression” value is on record as 2 fold.
Regarding `O=C(O)c1ccc(-c2nn(C(=O)c3ccccc3)c3ccccc23)cc1` [MRL-003], the “IL17a mRNA levels” value in series [5] is recorded as “did not reduce”. The IC50 at human RORγt LBD (read-out: IC50, inhibition of coactivator binding (cofactor peptide recruitment)) came out at 0.28 ± 0.117 µM.

For the origin of these results see PMC4686831, “Identification of an allosteric binding site for RORγt inhibition” (Nature Communications, 2015).
